Inhibition and IC50 data for 53 compounds are collected here from US10940139B2, “Compounds that interact with the Ras superfamily for the treatment of cancers, inflammatory diseases, rasopathies, and fibrotic disease” (Shy Therapeutics LLC, priority 2017, dated 2021).

The inhibition is the drop in the measured response relative to a control, in per cent. As a reminder, the IC50 is the midpoint of a concentration-inhibition curve. High values mean lower potency, low ones higher potency.

SMILES strings stand for the structures.

Format in all cases: cell-based
Test [1] relates to MIA-PACA2 pancreatic cancer cell lines. Nature of the test: Cell proliferation assay (CellTiter 96 AQueous One). The conditions noted are these: Homo sapiens, MIA PaCa-2; for inhibition at 30 µM: MIA-PACA2; for IC50: MIA-PACA2, same assay as the % inhibition (standard conditions). The protocol:
Cell lines: Tumor-derived pancreatic cancer cell lines MIA-PACA2 were purchased from ATCC and grown in complete DMEM-High Glucose medium supplemented with penicillin (100 U/mL), streptomycin (100 μg/mL), and 10% heat-inactivated FBS at 37° C. in a humidified incubator with 5% CO2.
Method: Cells are plated at 1000 cells/well density in 96-wells plate, starved ON, and the next day tested small molecules are added to the cells in the final concentration of 30 μM with 0.3% DMSO 3 hours prior to 10% FBS addition. After serum addition cells are incubated for 6 days at 37° C. in a humidified incubator with 5% CO2. For IC50 value determination, serial dilutions of compounds were added to cells under the same conditions.
Assay: At the end of the incubation period, cell cultures are tested using the CellTiter 96® AQueous One Solution Cell Proliferation Assay kit (Promega Corporation, Madison, Wis.) according to the manufacturer specifications. Briefly, assay is performed by adding 20 μl of the CellTiter 96 Aqueous One Solution Reagent directly to culture wells, followed by for 1-4 hours incubation at 37° C. in a humidified incubator with 5% CO2. At the end of incubation time, absorbance at 492 nm is recorded with the 96-well plate reader Eppendorf AF2200, and degree of small molecule-dependent proliferation inhibition is calculated from raw data assuming No Serum cells value as 100%.

The subject of test [2] is TNFα production in RAW 264.7 macrophage cell line. The test can be described thus: Mouse TNF alpha quantification assay (LPS-stimulated macrophages, ELISA). The conditions noted are these: RAW264.7, RAW 264.7 murine leukemia virus transformed macrophage cell lines, LPS stimulation, read-out: TNF-α % Inhibition at 30 μM. For orientation: ELISA stands for enzyme-linked immunosorbent assay.

The subject of test [3] is IL6 production in RAW 264.7 macrophage cell line. The test can be described thus: Mouse IL6 quantification assay (LPS-stimulated macrophages, ELISA). The conditions noted are these: RAW264.7, RAW 264.7 murine leukemia virus transformed macrophage cell lines, LPS stimulation, read-out: IL-6 % Inhibition at 30 μM.

As for `COc1cc(CCN(C)C(=O)c2csc3nc(-c4ccccn4)nc(N4CCOCC4)c23)ccn1` [drawing 1674], in test [1], the inhibition at 30 µM lay within 76 to 100%.
As for `COc1cccc(CN2CCN(C(=O)c3csc4c(O)nc(-c5ccccn5)nc34)CC2)c1` [drawing 1656], the inhibition at 30 µM in test [1] was in the range of 76 to 100%.
Still for that read-out and setting: to `O=C(c1csc2c(O)nc(-c3ccccn3)nc12)N1CC2CC1CN2c1ccccc1` (centres unmarked) [drawing 1714] belongs 76 to 100%; to `O=C(Nc1nc(-c2ccccn2)cs1)c1ccncc1` [drawing 1485], 76 to 100%.
Still for that read-out and setting: to `CC(=O)N1CCN(c2nc(-c3ccccn3)nc3scc(-c4ccccc4)c23)CC1` [drawing 1626] belongs 76 to 100%.
Take `O=C(CC1C=CCC1)Nc1nnc(-c2ccccn2)[nH]1` (centres unmarked) [drawing 1407]: the inhibition at 30 µM in test [1] was 51 to 75%.
In test [1], `COc1ccnc(-c2nc(O)c3c(Br)csc3n2)c1` [drawing 1637] gave an IC50 of 100 to 500 nM and an inhibition at 30 µM of 76 to 100%.
With `O=C(Nc1nnc(-c2ccccn2)[nH]1)c1ccc(=O)n(CCOc2ccccc2)n1` [drawing 1463], the inhibition at 30 µM in test [1] lay within 76 to 100%.
In turn, `O=C(Nc1nnc(-c2ccccn2)[nH]1)C1CC1c1ccc(F)cc1` (centres unmarked) [drawing 1432] displayed an inhibition at 30 µM in test [1] of 51 to 75%.
Still for that read-out and setting: to `O=C(Nc1nnc(-c2ccccn2)[nH]1)c1ccn(-c2ccccc2)n1` [drawing 1394] belongs 76 to 100%.
For `O=C(c1csc2c(O)nc(-c3ccccn3)nc12)N1CCN(c2ccccc2)CC1` [drawing 1569], in test [1], the IC50 was in the range of 100 to 500 nM and the inhibition at 30 µM fell in the range of 76 to 100%.
In turn, `Cc1cncc(-c2csc3c(O)nc(-c4ccccn4)nc23)c1` [drawing 1789] returned an inhibition at 30 µM in test [1] of 76 to 100%.
In test [1], `O=C(Nc1nnc(-c2ccccn2)[nH]1)c1cccc(N2CCCS2(=O)=O)c1` [drawing 1452] had an inhibition at 30 µM of 1 to 25%.
Compound `CC(C)C1=C(O)C2(CC2c2ccc(-c3ccccc3)cc2)C(C)CC1` (centres unmarked) [drawing 1540] returned an inhibition at 30 µM in test [1] of 76 to 100%.
In turn, `N#Cc1ccc(COCC(=O)Nc2ccnc(-c3ccccn3)n2)cc1` [drawing 1689] came in with an inhibition at 30 µM in test [1] of 76 to 100%.
The compound `c1ccc(-c2nc(N3CCOCC3)c3ccsc3n2)nc1` [drawing 1588] yielded an inhibition at 30 µM in test [1] of 51 to 75%.
For `COc1ccc(CCC(=O)Nc2nc(-c3ccccn3)nc3sccc23)cn1` [drawing 2330], the inhibition at 30 µM in test [2] fell in the range of 51 to 75%; in test [3], 76 to 100%.
With `O=C(Nc1nnc(-c2ccccn2)[nH]1)c1ccc2c(c1)CCO2` [drawing 1930], the inhibition at 30 µM in test [2] was 0%; in test [3], 1 to 25%.
In the same order, the values of `COC(=O)c1cc2nc(-c3ccccn3)nc(O)c2s1` [drawing 2299] are 51 to 75% and 76 to 100%.
Turning to `COc1ncc(CCNC(=O)c2csc3nc(-c4ccccn4)nc(N4CCOCC4)c23)cn1` [drawing 2175], the figures for the inhibition at 30 µM in test [2] and in test [3] were 0% and 1 to 25%, respectively.
In the same order, the values of `CC(C)Cc1csc2c(O)nc(-c3ccccn3)nc12` [drawing 2338] are 76 to 100% and 76 to 100%.
On to `NC(=O)C1CCCN1C(=O)c1cccc(-c2cc3nc(N)nc(O)c3s2)c1` (centres unmarked) [drawing 2371], for which the inhibition at 30 µM in test [2] and in test [3] was 0% each time.
As for `COC(=O)C(C)CN(Cc1cc(Br)ccc1[N+](=O)[O-])C1CC1` (centres unmarked) [drawing 2063], the inhibition at 30 µM is 0% in test [2] and 26 to 50% in test [3].
With `Cc1ccc(O)c(CN(C)Cc2nccn2Cc2ccccc2)n1` [drawing 2050], the values for the inhibition at 30 µM in test [2] and in test [3] were 0% and 1 to 25%, respectively.
With `O=C(c1csc2c(O)nc(-c3ccccn3)nc12)N1CCC(c2ccccc2)CC1`, the inhibition at 30 µM in test [2] was 51 to 75%; in test [3], 76 to 100%.
Consider `CN(CCCc1n[nH]c(N)c1C#N)c1nc(-c2ccccn2)nc2sc(-c3ccccc3)cc12` [drawing 2142], for which the values for the inhibition at 30 µM in test [2] and in test [3] were 51 to 75% and 76 to 100%, respectively.
Consider `Cn1cnc(-c2nc(O)c3sc(-c4ccncc4)c(-c4ccccc4)c3n2)c1` [drawing 2376], for which the inhibition at 30 µM in test [2] was 0%; in test [3], 1 to 25%.
`CCOCCOc1nc(-c2nccn2C)nc2sc(-c3ccccc3)c(-c3ccccc3)c12` [drawing 2399]: the results for the inhibition at 30 µM in test [2] and in test [3] were 26 to 50% and 1 to 25%, respectively.
In the case of `COc1cccc(C2CN(C(=O)c3csc4c(O)nc(-c5ccccn5)nc34)CCN2)c1` (centres unmarked) [drawing 2197], the inhibition at 30 µM in test [2] is 1 to 25%; in test [3], 76 to 100%.
In the same order, the values of `Cc1sc2c(O)nc(-c3nccn3C)nc2c1-c1ccccc1Cl` [drawing 2429] are 1 to 25% and 26 to 50%.
In the same order, the values of `CCN(CC)CCC(C)Nc1nc(-c2ccccn2)nc2sccc12` (centres unmarked) [drawing 2130] are 0% and 1 to 25%.
In the same order, the values of `O=C(Cc1ccc(F)cc1)Nc1nnc(-c2ccccn2)[nH]1` [drawing 1970] are 1 to 25% and 1 to 25%.
`COc1nc(-c2ccccn2)nc2c(C3CCCC3)csc12` [drawing 2309]: the inhibition at 30 µM in test [2] and in test [3] was 0% in each case.
Turning to `CC(C(=O)Nc1nc(-c2ccccn2)nc2sccc12)c1ccc(C#N)cc1` (centres unmarked) [drawing 2210], the inhibition at 30 µM in test [2] was 0%; in test [3] it was 51 to 75%.
In the same order, the values of `N#Cc1cccc(N2CCN(C(=O)c3csc4c(O)nc(-c5ccccn5)nc34)CC2)c1` [drawing 2181] are 0% and 51 to 75%.
In the same order, the values of `CC1CCN(C(=O)c2csc3c(O)nc(-c4ccccn4)nc23)CC1` [drawing 2101] are 0% and 26 to 50%.
In the same order, the values of `O=C(Nc1nnc(-c2ccccn2)[nH]1)C1CC(=O)N(CCc2ccccc2)C1` (centres unmarked) [drawing 1958] are 0% and 1 to 25%.
For `CC(C)c1nc(CC(=O)Nc2nnc(-c3ccccn3)[nH]2)cs1` [drawing 1949], the inhibition at 30 µM in test [2] is 0%; in test [3], 1 to 25%.
In the same order, the values of `Cc1ccccc1C1CN(C(=O)c2csc3c(O)nc(-c4ccccn4)nc23)CCN1` (centres unmarked) [drawing 2199] are 1 to 25% and 76 to 100%.
In the same order, the values of `COc1ccccc1C1CN(C(=O)c2csc3c(O)nc(-c4ccccn4)nc23)CCN1` (centres unmarked) [drawing 2196] are 0% and 26 to 50%.
As to `O=C(Nc1nnc(-c2ccccn2)[nH]1)C1Cc2cc(Cl)ccc2O1` (centres unmarked) [drawing 1995], the inhibition at 30 µM in test [2] lay within 1 to 25%; in test [3] it was 51 to 75%.
Turning to `COCC(C)Nc1nc(-c2ccccn2)nc2sc(C)c(-c3ccccc3)c12` (centres unmarked) [drawing 2039], the inhibition at 30 µM in test [2] and in test [3] was 76 to 100% each time.
As for `Cn1ccnc1-c1nc(NCCCO)c2c(-c3ccccc3)c(-c3ccccc3)sc2n1` [drawing 2406], the inhibition at 30 µM in test [2] was in the range of 26 to 50%; in test [3], 51 to 75%.
`COc1cc2c(cc1OC)CCN(C(=O)c1csc3c(O)nc(-c4ccccn4)nc13)CC2` [drawing 2117]: the inhibition at 30 µM lay within 1 to 25% in test [2] and 26 to 50% in test [3].
In the same order, the values of `CC1(O)CCN(C(=O)c2csc3c(O)nc(-c4ccccn4)nc23)CC1` [drawing 2110] are 0% and 51 to 75%.
For `O=C(Nc1nnc(-c2ccccn2)[nH]1)c1ccc(CN2C(=O)CCC2=O)cc1` [drawing 1950], the inhibition at 30 µM in test [2] was 1 to 25%; in test [3] it was 0%.
In the same order, the values of `Oc1nc(-c2ccccn2)nc2c(-c3cc(CN4CCCC4)ccc3F)csc12` [drawing 2324] are 0% and 51 to 75%.
In the same order, the values of `CC(Oc1ccc(C#N)cc1)C(=O)Nc1nnc(-c2ccccn2)[nH]1` (centres unmarked) [drawing 1977] are 1 to 25% and 1 to 25%.
In the same order, the values of `Oc1nc(-c2ccncn2)nc2c(-c3cccc(C(F)(F)F)c3)csc12` [drawing 2434] are 0% and 26 to 50%.
With `CN(CC(=O)Nc1nnc(-c2ccccn2)[nH]1)S(C)(=O)=O` [drawing 1959], the figures for the inhibition at 30 µM in test [2] and in test [3] were 1 to 25% and 0%, respectively.
As to `Oc1nc(-c2ccccn2)nc2c(-c3ccc(OC(F)F)cc3F)csc12` [drawing 2268], the inhibition at 30 µM in test [2] fell in the range of 26 to 50%; in test [3], 76 to 100%.
In the same order, the values of `COc1cnc(C2CCCN2)nc1O` (centres unmarked) [drawing 2308] are 1 to 25% and 1 to 25%.
In the same order, the values of `COCCNc1nc(-c2nccn2C)nc2sc(-c3ccccc3Cl)c(-c3ccccc3)c12` [drawing 2408] are 1 to 25% and 1 to 25%.
